# Residues, ends and D or L forms follow the SMILES beside them. *: point of attachment. NHtBu = CC(C)(C)N*
# Tests used:
# [1] = method code SF-AS, from DOI: 10.1135/cccc19881862
# [2] = method code SF-AS, from DOI: 10.1080/10826076.2011.619030
# [3] = method code SF-RC, from DOI: 10.1023/a:1015846100305, PMID: 1788157; details: pH 7.3
# [4] = method code SF-GLC, from DOI: 10.1016/0048-3575(76)90072-9
# [5] = not given; remark: listed apart in the source
# [6] = not given; remark: listed apart in the source
# [7] = not given; remark: listed apart in the source
# [8] = method code SF, from DOI: 10.1021/jm5019252, PMID: 25906180; details: pH 7.4
# [9] = not given; remark: listed apart in the source
# [10] = method code SF-RC, from DOI: 10.1021/jm00238a003, PMID: 1120999; details: pH 7.0
# [11] = method code SF-AS, from DOI: 10.1016/j.ejmech.2015.02.036, PMID: 25728022; details: pH 7.4
# [12] = method code SF-AS, from DOI: 10.1007/bf01648987
# [13] = not given; remark: listed apart in the source
# [14] = method code SF-HPLC, from DOI: 10.1002/ps.2780310207
# [15] = not given; remark: listed apart in the source
# [16] = method code SF-AS, from PMID: 578762
# [17] = not given; remark: listed apart in the source
# [18] = not given; remark: listed apart in the source
# [19] = method code SF-AS, from DOI: 10.1021/jm00085a014, PMID: 1560439; details: pH 7.4
# [20] = method code SF-AS, from DOI: 10.1039/p29900001191; details: pH 12.0
# [21] = method code SF-RC, from DOI: 10.1016/s0969-8043(00)00269-4, PMID: 11200881; details: pH 7.4
# [22] = method code SF, from PMID: 718082
structure (smiles),measurement,setting,value
O=C(O)C(OCc1ccc(Cl)cc1)c1ccccc1 (stereo not drawn),logD,[1]; pH 3.4,2.6
CC1(C)OC2C(CO)OC(n3ccc(=O)[nH]c3=O)C2O1 (stereo not drawn),logP,[2],-0.47
CC(=O)NC(C)C(=O)N1CCCC1C(=O)NC(C)C(=O)NC(C)(C)C (stereo not drawn) (Ac-Ala-Pro-Ala-NHtBu; configuration not given here),logD,[3],-0.39
CCOC(=O)CN(C(=O)CCl)c1ccccc1OC,logP,[4],1.78
COc1ccc(-c2cc(C#N)c(Cl)nc2C)cc1,logP,,3.38
O=C1CN=C(c2ccc(Br)cc2)c2cc(Br)ccc2N1,logP,[5],4.08
O=C(Oc1ccc(Cl)cc1)C1OC(O)C(O)C(O)C1O (stereo not drawn),logP,[6],0.45
c1nnn(C23CC4CC(CC(C4)C2)C3)n1,logP,[7],2.95
COC(=O)c1cc(OC(=O)N(C)c2ccccc2)ccc1O,logD,[8],3.13
Clc1ccccc1-c1cccc(Cl)c1Cl,logP,[9],5.31
CC(C)C(=O)OCC1OC(n2ccc(N)nc2=O)C(O)C1O (stereo not drawn),logD,[10],0.3
CC(C)(C)C(=O)OC[C@H]1O[C@@H](n2ccc(N)nc2=O)[C@@H](O)[C@@H]1O,logD,[10],0.1
CCCCn1c(C)nc2cc(Nc3nc(N4CCCC4)nc4[nH]cnc34)ccc21,logD,[11],1.36
O=C1CN=C(c2ccc(Cl)cc2)c2cc(Br)ccc2N1,logP,[5],3.78
CC(=O)OC(OC(C)=O)c1ccccc1,logP,[12],1.62
CCCN1CCn2c(nc3ccccc3c2=O)C1C (stereo not drawn),logP,[13],1.07
Fc1ccc(C2(Cn3cncn3)CC2)cc1,logP,[14],1.54
CCc1onc(C)c1N=C1C=C(Nc2c(C)noc2CC)C(=O)c2ccccc21,logP,[15],2.71
CCOC(=O)CN(C(=O)CCl)c1ccccc1CC,logP,[4],2.57
Cc1nc(N2CCOCC2)c(C#N)cc1-c1ccccc1,logP,,3.65
CC(C)(Cc1ccccn1)c1ccc(F)cc1,logP,[14],2.97
CCOC(=O)C=C1NC(=O)C(N2CCCCC2)S1 (stereo in doubt),logD,[16]; pH 5.9,2.3
NC(=O)CCN1CCc2cccc(Cl)c2CC1,logP,[17],1.64
CC1c2nc3ccccc3c(=O)n2C(C)CN1C (stereo not drawn),logP,[13],0.44
CCOC(=O)CN(C(=O)CCl)c1ccccc1Cl,logP,[4],2.3
CCc1onc(C)c1N=C1C=C(O)C(=O)c2ccccc21,logP,[15],2
Clc1cccc(-c2cccc(Cl)c2Cl)c1,logP,[9],5.57
c1ccc2nn(C34CC5CC(CC(C5)C3)C4)cc2c1,logP,[7],3.68
NS(=O)(=O)c1cc2c(cc1Cl)N=C(CSCc1ccccc1)NS2(=O)=O,logP,[18],1.73
CNC1CCC(c2ccc(Cl)c(Cl)c2)c2ccccc21 (stereo not drawn),logP,[18],4.3
C=CCn1c(C)nc2cc(Nc3nc(N4CCCCC4)nc4[nH]cnc34)ccc21,logD,[11],1.55
CCOC(=O)CN(C(=O)CCl)c1c(CC)cccc1CC,logP,[4],3.17
CC1(C)OC2C(CO)OC(n3ccc(=O)n(Cc4ccccc4)c3=O)C2O1 (stereo not drawn),logP,[2],1.82
CC(=O)N[C@@H](C)C(=O)N[C@@H](Cc1ccccc1)C(=O)N[C@@H](C)C(=O)NC(C)(C)C (Ac-Ala-Phe-Ala-NHtBu),logD,[3],1.01
CCCc1onc(C)c1N=C1C=C(O)C(=O)c2ccccc21,logP,[15],2.52
CCC(=O)n1c(C(=O)c2ccc(-n3ccnc3C)cc2)c(CC)[nH]c1=O,logD,[19],1.72
Cc1nc(Cl)c(C#N)cc1-c1ccccc1,logP,,3.24
O=C(Oc1ccc([N+](=O)[O-])cc1)C1OC(O)C(O)C(O)C1O (stereo not drawn),logP,[6],-0.45
CCc1cc(-c2ccccc2)nnc1NCCN1CCOCC1,logD,[20],2.53
NC(=O)NCCN1CCc2cccc(Cl)c2CC1,logP,[17],2.07
COc1ccc(-c2cc(C#N)c(N3CCOCC3)nc2C)cc1,logP,,4.4
CC1(C)OC2C(CO)OC(n3ccc(=O)n(C(=O)c4ccccc4)c3=O)C2O1 (stereo not drawn),logP,[2],0.95
CCCN1CC(C)n2c(nc3ccccc3c2=O)C1C (stereo not drawn),logP,[13],1.45
CN1CCc2cccc(Cl)c2CC1,logP,[17],2.92
Clc1cccc(-c2ccccc2Cl)c1,logP,[9],5.02
CCc1[nH]c(=O)n(C(=O)c2ccccc2)c1C(=O)c1ccc(-n2ccnc2C)cc1,logD,[19],1.96
CCOC(=O)c1ncn2c1CN(C)C(=O)c1cc(F)ccc1-2,logD,[21],1.26
CC(CC(=O)O)CC(=O)c1ccc(-c2ccc(-c3ccccc3)cc2)cc1 (stereo not drawn),logD,[1]; pH 3.5,3.82
Clc1ccc(-c2c(Cl)ccc(Cl)c2Cl)c(Cl)c1,logP,[9],6.31
c1ccc(C23CC4CC(CC(C4)C2)C3)cc1,logP,[7],5.55
O=C(Oc1ccc2ccccc2c1)C1OC(O)C(O)C(O)C1O (stereo not drawn),logP,[6],1.39
C=CCn1c(C)nc2cc(Nc3nc(N4CCCC4)nc4[nH]cnc34)ccc21,logD,[11],2.53
CC(=O)NC(C)C(=O)NC(Cc1c[nH]cn1)C(=O)NC(C)C(=O)NC(C)(C)C (stereo not drawn) (Ac-Ala-His-Ala-NHtBu; configuration not given here),logD,[3],-0.48
CCOC(=O)/C=C1/SC(N2CCCCC2)C(=O)N1CC (stereo not drawn),logD,[16]; pH 7.4,2.65
CCN(CCOC(C)=O)c1ccccc1,logP,[12],2.04
CCCC(Cn1cncn1)c1ccc(F)cc1 (stereo not drawn),logP,[14],2.01
COc1ccc(CCN2CCC(Nc3nc4ccccc4n3Cc3ccc(F)cc3)CC2)cc1,logP,[18],5.7
CC(=O)N[C@@H](C)C(=O)N[C@@H](C)C(=O)N[C@@H](C)C(=O)NC(C)(C)C,logD,[3],-0.51
CCOC(=O)/C=C1\SC(N(CC)CC)C(=O)N1C (stereo not drawn),logD,[16]; pH 7.4,2.2
COC(=O)c1cc(OC(=O)N(c2ccccc2)c2ccccc2)ccc1O,logD,[8],4.46
O=C(Oc1ccc(F)cc1)C1OC(O)C(O)C(O)C1O (stereo not drawn),logP,[6],-0.42
CN1CCc2c(cc(O)c(O)c2Cl)C(c2ccccc2)C1 (stereo not drawn),logD,[21],1.4
OC[C@H]1O[C@@H](Oc2cc(O[C@@H]3O[C@H](CO)[C@@H](O)[C@H](O)[C@H]3O)c(I)c(O[C@@H]3O[C@H](CO)[C@@H](O)[C@H](O)[C@H]3O)c2I)[C@H](O)[C@@H](O)[C@@H]1O,logP,[22],-2.22
CCCN1C(=O)C(N2CCCCC2)S/C1=C\C(=O)OCC (stereo not drawn),logD,[16]; pH 7.4,2.93
CN1CCc2cc(Cl)c(O)cc2[C@@H](c2ccccc2)C1,logD,[21],2.87
CCCCOc1ccc(OCCCN2CCOCC2)cc1,logP,[18],3.56
C=CCN1CCc2cccc(Cl)c2CC1,logP,[17],3.3
CN(C(=O)Oc1ccc(O)c(C(=O)NCc2cccnc2)c1)c1ccccc1,logD,[8],2.95
CCN1CC(C)n2c(nc3ccccc3c2=O)C1C (stereo not drawn),logP,[13],1.58
O=C1CN=C(c2ccccc2Br)c2cc(Br)ccc2N1,logP,[5],3.3
CCCC(Cc1ccccn1)c1ccc(F)cc1 (stereo not drawn),logP,[14],2.61
CC(CC(=O)c1ccc(-c2ccc(-c3ccc(F)cc3F)cc2)cc1)C(=O)O (stereo not drawn),logD,[1]; pH 3.5,3.78
CC(CC(=O)c1ccc(-c2ccc(-c3ccccc3)cc2)cc1)C(=O)O (stereo not drawn),logD,[1]; pH 3.5,3.4
CCCCCCCC(=O)OC[C@H]1O[C@@H](n2ccc(N)nc2=O)[C@@H](O)[C@@H]1O,logD,[10],1.6
O=C(OCc1ccccc1)OC1C(CO)OC(n2ccc(=O)[nH]c2=O)C1OC(=O)OCc1ccccc1 (stereo not drawn),logP,[2],2.96
CN(C(=O)Oc1ccc(O)c(C(=O)NCc2ccccc2)c1)c1ccccc1,logD,[8],4.19
CCC1ON=C(C)C1N=C1C=C(OC)C(=O)c2ccccc21 (stereo not drawn),logP,[15],2.43
Nc1ccn(C2OC(COC(=O)C3CCCCC3)C(O)C2O)c(=O)n1 (stereo not drawn),logD,[10],0.8
COc1ccc(C2CNC(=O)C2)cc1OC1CCCC1 (stereo not drawn),logD,[21],2.17
O=C1CN=C(c2cccc(Cl)c2)c2ccc(Br)cc2N1,logP,[5],3.63
CNC(=O)c1c(I)c(NC(C)=O)c(I)c(C(=O)O)c1I,logP,[22],-1.15
CCc1[nH]c(=O)[nH]c1C(=O)c1ccc(-n2ccnc2C)cc1,logD,[19],0.85
c1ccc2c(c1)nnn2C12CC3CC1CCC2C3 (stereo not drawn),logP,[7],3.52
CCc1[nH]c(=O)n(C(C)=O)c1C(=O)c1ccc(-n2ccnc2C)cc1,logD,[19],1.42
CC(=O)Oc1cccc2ccccc12,logP,[12],2.78
CC(=O)N(CCCl)c1ccc(CC(=O)O)cc1,logP,[12],1.2
CNC(=O)c1c(I)c(NC(C)=O)c(I)c(OCC2OC(O)C(O)C(O)C2O)c1I (stereo not drawn),logP,[22],-1.26
CCCCn1c(C)nc2cc(Nc3nc(Cl)nc4[nH]cnc34)ccc21,logD,[11],1.28
